These results are taken from US20260266804A1, “MODEL FOR ANALYZING INFLAMMATION AND USES THEREOF” (Technion Research & Development Foundation Limited, priority 2022, published 2026).

For series [1], the system named is aconitase (IRP1 activation). Briefly: Tempol in ECs-Raw 264.7 co-culture, aconitase in-gel activity. In kind it is cell-based. Conditions: Tempol 3 mM, direct correlation with incubation time. As for the experimental part: (§1) Day before co-culture assembly Caco2 cells were cultivated in an oxygen modified incubator (6% O2). Confluent co-cultures of epithelial cells and macrophages were obtained by seeding 2×10^5 cells per cm^2 surface area. Cell culture dishes employed were 10 cm or 6 well. For Caco2-Raw 264.7 co-cultures, Caco2 cells were seeded, after adherence Raw264.7 cells were added accordingly. For Caco2-BMDM co-cultures, on the six day of bone marrow extraction the cells were plated as previously mentioned, and Caco2 cells were added to them accordingly. Co-cultures were cultivated in an oxygen modified incubator (6% O2) at 37° C. and 5% CO2. Co-culture ratios used were 1:1 or 2:1 or 1:2.
Mitochondrial and cytosolic aconitase activities were assayed in parallel in cell lysates after electrophoretic separation as previously described [Tong et al. Cell metabolism 3, 199-210 (2006)]. Protein concentrations were determined using the Bradford assay (BIO-RAD, Hercules, California). Aconitase activity was detected chromogenically by incubating the gels in 100 mM Tris pH 8, 1 mM NADP, 2.5 mM cis-aconitic acid, 1.2 mM 3-(4,5-dimethylthiazol-2-yl)-2,5-diphenyl tetrazolium bromide, 0.3 mM phenazine methosulfate, 5 mM MgCl2 and 5 Units/ml isocitrate dehydrogenase. All chemicals were purchased from Sigma Missouri.

The test system of series [2] is ECs-Raw 264.7 co-culture. Briefly: Tempol in ECs-Raw 264.7 co-culture, pro-inflammatory markers by RTqPCR. The note with it: Tempol 3 mM alone, different times, no LPS. The format is cell-based, human and mouse. Here is the method: as §1
(§2) RNA was extracted using the Trizol reagent (Invitrogen). Cells were harvested directly with Trizol, whereas tissues were first ground in liquid-N2 cooled mortars then incubated with Trizol following manufacturer's instructions. Isolated RNA samples were submitted to DNase treatment using DNase I recombinant, RNase-free kit (Roche). cDNA was prepared using cDNA Reverse Transcription Kit (Quanta biosciences), and the RT-PCRs were performed using SYBR master mix (Applied Biosystems). The delta Ct method was used to calculate a relative expression of the target gene in comparison to topoisomerase 1 for epithelial cells and ubiquitin for macrophage genes.

Series [3] deals with epithelial pro-inflammatory markers (Caco2 cells). Briefly: Pre-conditioning of Caco2 cells with tempol, then Raw 264.7 cells and LPS, qRT-PCR. In kind it is cell-based, human. Conditions: tempol 3 mM 16 hours pre-conditioning, then Raw 264.7 and LPS 6 hours. As for the experimental part:
Representative SDS-PAGE gels of subcellular fractions, cytosolic nuclear soluble and nuclear chromatic bound fractions (upper). Protein levels were quantified with Image J (lower), values presented as mean±SD. n=4. * DFO 100 Um for 24 hours. C-E. Co-culture of epithelial cells and macrophages with targeted deletion of IRP1 (MΦ Irp1^−/−) didn't restore iron homeostasis in the co-culture upon LPS stimulation. Epithelial cells were co-cultured with BMDM isolated from C57BL/6 mice (MΦ wt) or from IRP^−/− on C57BL/6 background mice (MΦ Irp1^−/−) as described. LPS 200 ng/ml was added for 24 hours. […] Representative immunoblot of FtH. n=8. […] Representative blot of IRP2. n=8. E. Aconitase activities were decreased in epithelial cells and macrophages in EC-MΦ wt and EC-MΦ Irp1^−/− co-cultures. Representative aconitase in-gel assay. n=4. […] Caco2 cells were cultured with tempol (3 mM) for 16 hours, cells were then washed, and Raw 264.7 cells were added. When Raw 264.7 cells were adhered, the excess of cells was washed away and LPS was added for 6 hours. Expression levels were measured by qRT-PCR. n=6.
RNA was extracted using the Trizol reagent (Invitrogen). Cells were harvested directly with Trizol, whereas tissues were first ground in liquid-N2 cooled mortars then incubated with Trizol following manufacturer's instructions. […]

Series [4] has as its system Caco2 cells. Description: SNAP treatment of 55Fe labeled Caco2 cells, CPM in cells and medium. In kind it is cell-based, human. The note with it: SNAP induced Caco2 cells. Here is the method:
(§3) Day before SNAP (Sigma) treatment, Caco2 cells were cultured in working medium with MEM (Sigma) supplemented with 20% heat inactivated FCS (Biological Industries), ferric ammonium citrate (Sigma), non-essential amino acids (Gibco), sodium pyruvate (Gibco), L-glutamine (Biological Industries) and Pen.-strep. (Biological Industries) in an oxygen modified incubator (6% O2) at 37° C. and 5% CO2.
(§4) SNAP was added to the cells for 22 hours in two sequential doses 1 mM each. First dose was added for 6 hours, 20% of the medium was then collected and replaced with working medium containing 5 mM SNAP for additional incubation of […].
Cells were given medium containing transferrin loaded with labeled iron. First labeled Ferric nitrilotriacetate (Fe-(NTA)2) was prepared, by mixing 5 parts of […] (pH=3) in 0.9% NaCl, with 4 parts of 100 mM of ferric chloride solution (FeCl3) in 0.1M HCl and one part of ^55Fe labeled ferric chloride solution (^55FeCl3). The mixture was incubated for 30 minutes at RT. Next, 125 parts of 1 mM human Apotransferrin (Kamada) solution in HBS was mixed with 12.5 parts of NaHCO3 and 10 parts of the labeled Ferric nitrilotriacetate (50 mM). The mixture was then added to the growth medium, 147.5 ul of labeled transferrin was added to 2 ml of growth medium. Cells were labeled with ^55Fe for ON. Then the medium was removed and cells were washed with PBS. […]

Series [5] deals with Caco-2 cells. Description: SNAP treatment of Caco2 cells, IL-8 mRNA by qRT-PCR. In kind it is cell-based, human. Conditions: SNAP two sequential doses, 22 hours. As for the experimental part:
as §3, §4, §2

Entries after “also recorded” stand apart in the source; their conditions may differ.

Turning to `CC1(C)CC(O)CC(C)(C)N1[O]` [tempol], the aconitase activities result in series [1] is given as “decreased”. Also, the “transcription levels of pro-inflammatory markers / inflammatory response” value in series [2] is “did not elicit any inflammatory response; also recorded: increased trend that was not statistically significant”. Further, in series [3], the “expression levels of selected epithelial pro-inflammatory markers” value is “significantly increased”.
As for `CC(=O)N[C@H](C(=O)O)C(C)(C)SN=O` (racemic) [SNAP, S-Nitroso-N-Acetylpenicillamine], the intracellular iron entry in series [4] (55Fe CPM in the cells) is reported as “reduced”. Also, the extracellular iron entry in series [4] (55Fe CPM in the medium) is “increased”. The “IL-8 mRNA expression levels / inflammatory response in Caco-2 cells alone” value in series [5] was “showed an inflammatory response; also recorded: elevated”.
